Measured values as given in the supplement of paper PMC10307832.

compound: CC1=C(N=C(N=C1N)[C@H](CC(=O)N)NC[C@@H](C(=O)N)N)C(=O)N[C@@H]([C@H](C2=CN=CN2)OC3C(C(C(C(O3)CO)O)O)OC4C(C(C(C(O4)CO)O)OC(=O)N)O)C(=O)N[C@H](C)[C@H]([C@H](C)C(=O)N[C@@H]([C@@H](C)O)C(=O)NCCC5=NC(=CS5)C6=NC(=CS6)C(=O)NCCC[S+](C)C)O [Bleomycin]; assay: relative viability (nuclei count vs DMSO), 5 days (fraction); higher = more cells survive; details: 0.01 µM; main component drawn
Method in brief: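 Viability is treated-well nuclei as a fraction of vehicle-well nuclei, reported as the median across plates. Before counting, lung cancer cell lines were kept overnight at 37 °C in 1536-well plates, pinned with five √10-spaced library-drug doses on vehicle-anchored plates, and left 5 days without medium change, then fixed, permeabilised and Hoechst-stained in one step, imaged at 4× and counted by MetaXpress. A plate passed only if control CV was below 25% and at least one doubling occurred.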

Cell Line | relative viability
Calu-6 | 0.77
HCC-366 | 0.923
NCI-H1666 | 0.781
NCI-H647 | 0.397
LK-2 | 0.686
NCI-H2126 | 0.961
SK-MES-1 | 0.861
H3255 | 0.837
COR-L23 | 0.831
COR-L 105 | 0.943
IA-LM | 0.873
LOU-NH91 | 0.838
NCI-H2170 | 0.939
NCI-H3122 | 1
HOP-62 | 0.47
HCC-44 | 0.587
A549 | 0.843
LU99A | 0.766
BEN | 0.94
HARA | 0.804
HCC-78 | 0.788
LCLC-97TM1 | 0.394
NCI-H2009 | 0.953
A-427 | 0.795
NCI-H460 | 0.738
NCI-H727 | 0.891

same assay, conditions: 0.03162 µM; main component drawn

Cell Line | relative viability
NCI-H2085 | 0.913
Calu-6 | 0.784
HCC-366 | 0.722
NCI-H1666 | 0.737
NCI-H647 | 0.369
LK-2 | 0.575
NCI-H2126 | 1
SK-MES-1 | 0.885
H3255 | 1.02
COR-L23 | 0.799
COR-L 105 | 0.87
IA-LM | 0.852
LOU-NH91 | 0.689
NCI-H2170 | 0.934
NCI-H3122 | 0.993
HOP-62 | 0.473
HCC-44 | 0.445
A549 | 0.789
LU99A | 0.794
BEN | 0.943
HARA | 0.769
HCC-78 | 0.994
LCLC-97TM1 | 0.525
NCI-H2009 | 1.02
A-427 | 0.811
NCI-H460 | 0.661
NCI-H727 | 0.777

same assay, conditions: 0.1 µM; main component drawn

Cell Line | relative viability
NCI-H2085 | 0.83
Calu-6 | 0.495
HCC-366 | 0.591
NCI-H1666 | 0.649
NCI-H647 | 0.237
LK-2 | 0.485
NCI-H2126 | 1.03
SK-MES-1 | 0.77
H3255 | 0.821
COR-L23 | 0.586
COR-L 105 | 0.759
IA-LM | 0.839
LOU-NH91 | 0.614
NCI-H2170 | 0.86
NCI-H3122 | 0.928
HOP-62 | 0.257
HCC-44 | 0.361
A549 | 0.608
LU99A | 0.659
BEN | 0.973
HARA | 0.842
HCC-78 | 0.883
LCLC-97TM1 | 0.258
NCI-H2009 | 1.01
A-427 | 0.748
NCI-H460 | 0.483
NCI-H727 | 0.831

same assay, conditions: 0.3162 µM; main component drawn

Cell Line | relative viability
NCI-H2085 | 0.56
Calu-6 | 0.205
HCC-366 | 0.182
NCI-H1666 | 0.474
NCI-H647 | 0.125
LK-2 | 0.28
NCI-H2126 | 0.758
SK-MES-1 | 0.371
H3255 | 0.61
COR-L23 | 0.188
COR-L 105 | 0.556
IA-LM | 0.347
LOU-NH91 | 0.448
NCI-H2170 | 0.703
NCI-H3122 | 0.528
HOP-62 | 0.183
HCC-44 | 0.226
A549 | 0.132
LU99A | 0.407
BEN | 0.638
HARA | 0.506
HCC-78 | 0.564
LCLC-97TM1 | 0.16
NCI-H2009 | 0.659
A-427 | 0.326
NCI-H460 | 0.0877
NCI-H727 | 0.391

same assay, conditions: 1 µM; main component drawn

Cell Line | relative viability
NCI-H2085 | 0.515
Calu-6 | 0.174
HCC-366 | 0.0724
NCI-H1666 | 0.451
NCI-H647 | 0.0764
LK-2 | 0.277
NCI-H2126 | 0.714
SK-MES-1 | 0.262
H3255 | 0.502
COR-L23 | 0.129
COR-L 105 | 0.404
IA-LM | 0.356
LOU-NH91 | 0.339
NCI-H2170 | 0.66
NCI-H3122 | 0.358
HOP-62 | 0.107
HCC-44 | 0.209
A549 | 0.0828
LU99A | 0.242
BEN | 0.742
HARA | 0.537
HCC-78 | 0.642
LCLC-97TM1 | 0.0918
NCI-H2009 | 0.566
A-427 | 0.2
NCI-H460 | 0.0714
NCI-H727 | 0.687
